Among the test systems are COLO 205 colon; HCT-15 colon; HT29 colon; MCF7 breast; OVCAR-4 ovarian; OVCAR-5 ovarian; RPMI-8226 leukemia; RXF 393 renal; U251 CNS; UO-31 renal.
Holding throughout (test): NCI anticancer screen, dose series, 48 h

This note sets out measurements from PubChem BioAssay (NCI).

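These data come from cells grown in 96-well plates and exposed to compound for 48 hours at five concentrations. TGI: total growth inhibition.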

In the case of `CCN1CCc2sc3[nH]c(=S)n(C)c(=O)c3c2C1`, the TGI with COLO 205 colon, in the test with HCT-15 colon, in the test on HT29 colon, with MCF7 breast, in the test with OVCAR-4 ovarian and with OVCAR-5 ovarian was more than 100 µM in each case. Moreover, the TGI in the test with RPMI-8226 leukemia, in the test with RXF 393 renal, in the test with U251 CNS and in the test with UO-31 renal was more than 100 µM each time.

Take `COC(=O)c1cc(CNCCc2c[nH]c3ccccc23)on1`: the TGI in the test with COLO 205 colon is more than 100 µM; in the test with HCT-15 colon, more than 100 µM; in the test on HT29 colon, more than 100 µM; with MCF7 breast, more than 100 µM; with OVCAR-4 ovarian it was more than 83.3 µM; in the test on OVCAR-5 ovarian, more than 100 µM. The TGI in the test on RPMI-8226 leukemia, in the test with RXF 393 renal, with U251 CNS and with UO-31 renal was more than 100 µM each time.

As for `COc1ccc(N=Nc2ccc3oc(=O)c(C(=O)Nc4ccc(OC)cc4)cc3c2)cc1`, the TGI in the test on COLO 205 colon amounted to 43.7 µM; with HCT-15 colon, 45.2 µM; in the test on HT29 colon it was 55.5 µM; in the test with MCF7 breast, 38 µM; in the test with OVCAR-4 ovarian it was 75.3 µM; with OVCAR-5 ovarian, 50.6 µM. Moreover, the TGI was 67.2 µM in the test on RPMI-8226 leukemia, more than 100 µM in the test on RXF 393 renal, 30 µM in the test with U251 CNS and 62.4 µM in the test on UO-31 renal.

Turning to `CC(=O)CC(=O)Nn1c(-c2cccs2)nc2ccc(I)cc2c1=O`, the TGI in the test on COLO 205 colon, with HCT-15 colon, in the test with HT29 colon, with MCF7 breast, in the test on OVCAR-4 ovarian and with OVCAR-5 ovarian was more than 100 µM throughout. In addition, the TGI in the test on RPMI-8226 leukemia is more than 100 µM; with RXF 393 renal, more than 100 µM; with U251 CNS it was more than 100 µM; in the test with UO-31 renal it was more than 91.3 µM.

For `COc1cc(OC)cc(N(C)Cc2cnc3nc(N)nc(N)c3c2C)c1`, the TGI in the test on COLO 205 colon, in the test with HCT-15 colon, with HT29 colon, with MCF7 breast, in the test with OVCAR-4 ovarian and in the test on OVCAR-5 ovarian was more than 100 µM in each case. Besides, the TGI in the test with RPMI-8226 leukemia, with RXF 393 renal, in the test on U251 CNS and with UO-31 renal was more than 100 µM throughout.

Consider `COC(=O)[C@H]1ON2O[C@H](OC3CCCC[C@@H]3c3ccccc3)C[C@@H]3CC[C@H]1[C@@]32C` (stereo not given in full), for which the TGI with COLO 205 colon, with HCT-15 colon, in the test with HT29 colon, in the test with MCF7 breast, in the test with OVCAR-4 ovarian and in the test with OVCAR-5 ovarian was more than 100 µM each time. The TGI in the test with RPMI-8226 leukemia, in the test with RXF 393 renal, with U251 CNS and with UO-31 renal was more than 100 µM in each case.

Consider `CCOC(=O)C1C(=O)C=C(c2cc(C)ccc2O)CC1c1cccc(Br)c1` (stereo not given), for which the TGI in the test with COLO 205 colon amounted to 31.1 µM; in the test with HCT-15 colon it was 10.4 µM; in the test with HT29 colon, 37.5 µM; with MCF7 breast, 87.1 µM; in the test with OVCAR-4 ovarian, 5.17 µM; with OVCAR-5 ovarian, 68.9 µM. Besides, the TGI in the test on RPMI-8226 leukemia was found to be 33.8 µM; with RXF 393 renal it was 33.4 µM; in the test with U251 CNS, 32 µM; with UO-31 renal, 56.6 µM.

On to `COc1cccc2c(NNc3ccc(Cl)cc3)c3ccc([N+](=O)[O-])cc3nc12`, for which the TGI with COLO 205 colon is 85 µM; with HCT-15 colon, 27.3 µM; in the test on HT29 colon, 34.8 µM; in the test with MCF7 breast, more than 100 µM; with OVCAR-4 ovarian it was 30.9 µM; in the test with OVCAR-5 ovarian, 91.9 µM. The TGI with RPMI-8226 leukemia was more than 100 µM; in the test on RXF 393 renal, 48 µM; with U251 CNS it was 31.2 µM; with UO-31 renal it was 37.9 µM.

In the case of `O=C(C(=O)n1ccc2ccccc21)c1c[nH]c2ccccc12`, the TGI in the test on COLO 205 colon, in the test with HCT-15 colon, with HT29 colon, in the test on MCF7 breast, in the test with OVCAR-4 ovarian and with OVCAR-5 ovarian was more than 10 µM in each case. In addition, the TGI in the test with RPMI-8226 leukemia, in the test on RXF 393 renal, with U251 CNS and with UO-31 renal was more than 10 µM each time.

`C[N+]12C=CC=C1C(N1CCCC1)c1sc(-c3ccc(Cl)cc3)cc12` (stereo not given): the TGI in the test on COLO 205 colon is 31.6 µM; in the test with HCT-15 colon, 90.5 µM; in the test on HT29 colon, 34.3 µM; with MCF7 breast, 28.3 µM; in the test with OVCAR-4 ovarian, 33.4 µM; in the test with OVCAR-5 ovarian, 35.8 µM. Besides, the TGI with RPMI-8226 leukemia was 57.7 µM; in the test with RXF 393 renal, 31.9 µM; in the test with U251 CNS it was 24.5 µM; in the test with UO-31 renal, more than 100 µM.

In the case of `CC(C)(C)OC(=O)N(CCCN)CCCCN(CCCN)C(=O)OC(C)(C)C`, the TGI with COLO 205 colon, in the test with HCT-15 colon, in the test on HT29 colon, in the test on MCF7 breast, in the test with OVCAR-4 ovarian and in the test with OVCAR-5 ovarian was more than 100 µM throughout. Moreover, the TGI with RPMI-8226 leukemia, with RXF 393 renal, in the test with U251 CNS and with UO-31 renal was more than 100 µM throughout.

Take `C[C@H]1C(=O)C2=C[C@H]1CCC(=O)[C@]1(C)CCCC(C)(C)[C@H]1C[C@H]2O`: the TGI in the test with COLO 205 colon was 28.4 µM; with HCT-15 colon it was 34.3 µM; in the test on HT29 colon, 28.6 µM; with MCF7 breast, 27.3 µM; with OVCAR-4 ovarian, more than 100 µM; in the test with OVCAR-5 ovarian it was more than 100 µM. The TGI worked out at 34.2 µM in the test on RPMI-8226 leukemia, 23.6 µM in the test with RXF 393 renal, 28.4 µM in the test with U251 CNS and 75.1 µM in the test on UO-31 renal.

In the case of `Fc1ccccc1N=c1oc2ccc(Br)cc2cc1-c1nc2ccccc2[nH]1`, the TGI in the test on COLO 205 colon was more than 100 µM; in the test on HCT-15 colon it was more than 100 µM; in the test with HT29 colon, more than 54.8 µM; in the test with MCF7 breast, more than 100 µM; in the test on OVCAR-4 ovarian, more than 37.3 µM; with OVCAR-5 ovarian, more than 62.8 µM. Moreover, the TGI with RPMI-8226 leukemia is more than 85.6 µM; in the test with RXF 393 renal it was 21.8 µM; in the test with U251 CNS, 20.1 µM; with UO-31 renal, 20.5 µM.
